These results are taken from PubChem BioAssay AID624344 (Sanford-Burnham Center for Chemical Genomics, 2012).

Calls of active or inactive are those of the source. How the calls were made is not given here.

For orientation: IC50 means the concentration at which inhibition is half-maximal.

Experiment [1] can be described thus: inhibitors of PAF-induced NFkB signaling in CF airway cells, dose response, cell-based, uHTS hits, panel, cytotoxicity readout (AID 624344). As to conditions: CF bronchial epithelial cells, PAF-induced NFkB reporter inhibition; with PAF, mean of runs.
A further experiment has as its system Cytotoxicity. The experiment is described as above. As to conditions: CF bronchial epithelial cells, mean of runs.

As for `O=C(Nc1cccc(Cl)c1)Nc1csc([N+](=O)[O-])c1`, the IC50 was 4.12 µM in experiment [1] and 0.788 µM in the experiment with Cytotoxicity.

For `COc1cccc(-c2cc(NC=O)c3ncc(-c4ccc(C(C)=O)cc4)n3c2)c1`, the IC50 was 11.8 µM in experiment [1] and 37.2 µM in the experiment with Cytotoxicity.

With `c1cncc(-c2ccc3ncnc(NCc4ccc5c(c4)OCO5)c3c2)c1`, the IC50 in experiment [1] is 6.5 µM; with Cytotoxicity, 6.65 µM.

With `C[C@@H]1CN([C@H](C)CO)C(=O)c2cc(NC(=O)Nc3ccc(C(F)(F)F)cc3)ccc2O[C@H]1CN(C)S(=O)(=O)c1ccc(Cl)cc1`, the IC50 in experiment [1] was 14.1 µM; with Cytotoxicity it was > 79 µM (inactive).

For `C[C@H](CO)N1C[C@H](C)[C@@H](CN(C)C(=O)Nc2ccc3c(c2)OCO3)Oc2c(NC(=O)Nc3ccc(C(F)(F)F)cc3)cccc2C1=O`, the figures for the IC50 (in experiment [1]; in the experiment on Cytotoxicity) were 3.05 µM and 5.77 µM, respectively.

Regarding `O=C(Nc1ccc(OCC(=O)N2CCOCC2)cc1)c1cncc(Br)c1`, the IC50 in experiment [1] was 6.67 µM; in the experiment with Cytotoxicity, > 79 µM (inactive).

As to `O=[N+]([O-])c1ccc2ncnc(N3CCN(Cc4ccc5c(c4)OCO5)CC3)c2c1`, the IC50 is 2.62 µM in experiment [1] and > 79 µM (inactive) in the experiment with Cytotoxicity.

Take `Cc1cccc(C)c1NS(=O)(=O)c1ccc(-c2cnc(C3CC3)o2)cc1`: the figures for the IC50 (in experiment [1]; in the experiment with Cytotoxicity) were 11.8 µM and 35 µM, respectively.

For the molecule `COc1ccc(-c2csc3ncnc(NCCO)c23)cc1`, the results for the IC50 (in experiment [1]; in the experiment with Cytotoxicity) were 1.85 µM and 54 µM (inactive), respectively.

As for `COc1cc(C2c3cc4c(c(O)c3CC3COC(=O)C32)OCO4)cc(OC)c1OC` (centres undefined), the IC50 result in experiment [1] was “inactive”. The IC50 with Cytotoxicity is > 79 µM (inactive).

As for `COc1ccc(/C=N/Nc2nc(-c3cccnc3)nc3ccccc23)cc1OC`, the IC50 in experiment [1] is 3 µM; with Cytotoxicity, 8.04 µM.

For `CCN(CC)CCNC(=O)c1ccc(NC(=O)C2CCN(c3ncnc4sc(C)c(C)c34)CC2)cc1`, the IC50 is 6.33 µM in experiment [1] and 16.1 µM in the experiment on Cytotoxicity.

As to `CC(C)c1nc(Cl)c(C#N)c2c1CCCC2`, the IC50 in experiment [1] was 3.57 µM; in the experiment on Cytotoxicity, 71.6 µM (inactive).

In the case of `COc1ccc2[nH]c3c(c2c1)CCN1C(=O)C(CC(=O)NCCC2=CCCCC2)C[C@H](C(=O)N2CCCCC2)[C@@]31CCc1ccccc1` (some centres undefined), the IC50 is 8.09 µM in experiment [1] and 44.1 µM with Cytotoxicity.

`CC(C)(C)S(=O)N1Cc2cc(C(=O)NCC(F)(F)F)nc(-c3cccc(-c4cccc(F)c4)c3)c2[C@@H]1CCO` (some centres undefined): the IC50 in experiment [1] was 5.86 µM; in the experiment with Cytotoxicity it was 16 µM.

`COc1cc(C2c3cc4c(cc3C3OC(=O)C2C3CO)OCO4)cc(OC)c1OC` (centres undefined): the IC50 result in experiment [1] is “inactive”. For the same molecule, the IC50 with Cytotoxicity is > 79 µM (inactive).

Consider `COc1cccc(NC(=O)CN(C)CC(=O)Nc2ccc(C)c([N+](=O)[O-])c2)c1`, for which the IC50 in experiment [1] is 6.21 µM; with Cytotoxicity, > 79 µM (inactive).

With `COc1cccc(CN(C)C(=O)C(CCSC)NS(=O)(=O)c2ccc3c(c2)OCCO3)c1OC` (centres undefined), the figures for the IC50 (in experiment [1]; with Cytotoxicity) were 3.4 µM and 13.3 µM, respectively.

As for `COc1ccc(OC)c(Nc2ncnc3ccc(Br)cc23)c1`, the IC50 is 4.6 µM in experiment [1] and 13.8 µM in the experiment on Cytotoxicity.

`NC(c1csc(NC(=O)Nc2cccc(Cl)c2)n1)c1ccccc1Cl` (centres undefined): the IC50 was 7.54 µM in experiment [1] and 21.7 µM in the experiment on Cytotoxicity.

For the molecule `COc1cc(CCc2ccccc2)c(C(=O)O)c(O)c1C/C=C(/C)CCC=C(C)C`, the IC50 in experiment [1] is 6.26 µM; in the experiment on Cytotoxicity it was 14.7 µM.

For `CC1(O)CC(c2ccc(Cl)cc2)=NN1C(=O)c1ccc(Cl)cc1` (centres undefined), the IC50 in experiment [1] is 5.49 µM; in the experiment on Cytotoxicity, 14 µM.

With `CCN1CCN(Cc2ccc(NC(=O)c3ccc(C)c(NC(=O)c4cc(-c5ccc(Br)cc5)n[nH]4)c3)cc2C(F)(F)F)CC1`, the figures for the IC50 (in experiment [1]; in the experiment with Cytotoxicity) were 2.77 µM and 42.5 µM, respectively.

With `NS(=O)(=O)c1ccc(CCNC(=O)c2ccc(C#CC3(O)CCCCC3)cc2)cc1`, the IC50 was 3.47 µM in experiment [1] and 5.01 µM with Cytotoxicity.

Turning to `COc1ccc(N(CCCN2C(=O)c3cccc4cccc(c34)C2=O)C(=O)c2ccncc2)cc1`, the IC50 entry in experiment [1] is “inactive”. Moreover, the IC50 in the experiment on Cytotoxicity is 12.9 µM.

Take `Cc1c(C=O)c(C=O)c(C)n1Cc1ccccc1`: the IC50 in experiment [1] was 1.64 µM; with Cytotoxicity, 4.67 µM.

For the molecule `COc1ccc(-c2nc(N3CCOCC3)nc3n[nH]c(N)c23)cc1`, the results for the IC50 (in experiment [1]; in the experiment with Cytotoxicity) were 6.92 µM and 9.47 µM, respectively.

With `C=C1C(=O)O[C@@]23[C@H]1CC[C@@H](C)[C@@H]2CC[C@@]1(C)O[C@@H]31`, the IC50 in experiment [1] is 3.76 µM; in the experiment on Cytotoxicity it was 44.9 µM.

For `Nc1nc(N)nc(-c2cc([N+](=O)[O-])ccc2O)n1`, the IC50 in experiment [1] was 8.82 µM; in the experiment with Cytotoxicity, > 79 µM (inactive).

Turning to `CCOC(=O)c1c(C)[nH]c(C(=O)N/N=C/c2ccc(Br)cc2)c1C`, the IC50 in experiment [1] is 14.6 µM; in the experiment on Cytotoxicity, 45.9 µM.

On to `CN1CCN(S(=O)(=O)c2ccc(Sc3nnnn3-c3ccccc3)c([N+](=O)[O-])c2)CC1`, for which the IC50 in experiment [1] was 2.06 µM; with Cytotoxicity it was 3.12 µM.

For `Clc1cccc(Nc2ncnc3ccc(Br)cc23)c1`, the IC50 in experiment [1] is 3.53 µM; in the experiment on Cytotoxicity, 15.1 µM.

Regarding `NC(=O)c1c(Br)n(C2OC(CO)C(O)C2O)c2ncnc(N)c12` (centres undefined), the results for the IC50 (in experiment [1]; in the experiment on Cytotoxicity) were 2.03 µM and 3.07 µM, respectively.

Regarding `CCOC(=O)Nc1ccc2c(c1)N(C(=O)CCN(CC)CC)c1ccccc1S2=O` (centres undefined), the IC50 in experiment [1] is 5.94 µM; with Cytotoxicity it was 34.5 µM.

Turning to `CC(C)C[C@@H](CN1CCCC1CN1C(=S)NC[C@@H]1Cc1ccc(O)cc1)N1C[C@H](Cc2ccc(O)cc2)N(CC2CCCCC2)C1=S` (some centres undefined), the results for the IC50 (in experiment [1]; with Cytotoxicity) were 9.1 µM and 19.8 µM, respectively.

Regarding `Cc1ccc(C(=O)Nc2cccc(C(F)(F)F)c2)cc1NC(=O)c1cnnc2ccccc12`, the IC50 was 6.43 µM in experiment [1] and 22.6 µM in the experiment on Cytotoxicity.

Take `NC1(C(=O)O)CSSC1`: the figures for the IC50 (in experiment [1]; in the experiment with Cytotoxicity) were 7.73 µM and 35.6 µM, respectively.

Take `Cc1ccc(Sc2c(C=O)c3ccccc3n2C)cc1`: the IC50 was 2 µM in experiment [1] and 18 µM in the experiment on Cytotoxicity.

Consider `O=C(OC1CCOC1=O)c1ccccc1C(=O)c1ccc(Cl)c([N+](=O)[O-])c1` (centres undefined), for which the IC50 in experiment [1] was 4.44 µM; in the experiment with Cytotoxicity, 7.46 µM.

Take `CCSc1nsc(NC(=O)Nc2cccc(OC)c2)n1`: the IC50 in experiment [1] is 4.22 µM; in the experiment with Cytotoxicity, 23.3 µM.

For the molecule `Cc1ccc(-c2cc(C(=O)N/N=C/c3c(C)nn(-c4ccccc4)c3C)[nH]n2)cc1`, the IC50 entry in experiment [1] is “inactive”. Further, the IC50 with Cytotoxicity is > 79 µM (inactive).

Take `O=C(/C=C/c1cccs1)Nc1cccc(NC(=O)/C=C/c2cccs2)n1`: the concentration for half-maximal inhibition (IC50) in experiment [1] is 5.98 µM; in the experiment on Cytotoxicity, 1.57 µM.

For `CC(=O)N1CC(=O)N=C1SCC(=O)Nc1nc(C)c(-c2ccccc2)s1`, the IC50 in experiment [1] is 9.21 µM; in the experiment on Cytotoxicity it was 59.7 µM (inactive).

As to `N#Cc1ccsc1NC(=O)c1ccc(Cl)c([N+](=O)[O-])c1`, the IC50 in experiment [1] was 4.95 µM; in the experiment with Cytotoxicity it was 18.4 µM.

Take `Cc1cccc(CS(=O)(=O)c2ncc(Cl)c(C(=O)NCc3ccccc3)n2)c1`: the IC50 was 2.47 µM in experiment [1] and 2.27 µM in the experiment with Cytotoxicity.

For the molecule `COc1ccc(C2=Nn3c(nnc3-c3ccncc3)SC2)cc1`, the IC50 was 2.72 µM in experiment [1] and 40 µM in the experiment with Cytotoxicity.

Regarding `Nc1ncc([N+](=O)[O-])c(N2CCCCCC2)n1`, the IC50 is 2.28 µM in experiment [1] and > 79 µM (inactive) in the experiment on Cytotoxicity.
